Reference: patent publication US8629144B2, “Polymorphic and hydrate forms, salts and process for preparing 6-{difluoro[6-(1-methyl-1H-pyrazol-4-yl)[1,2,4]triazolo[4,3-b]pyridazin-3-yl]methyl}quinoline” (Janssen Pharmaceutica NV, priority 2007, dated 2014)
In brackets after ≈: the same amount, converted by molar mass. Like-named read-outs stand apart in the source and are kept apart here.

Assays:
[1] = Aqueous solubility of Forms I, III and hydrate at different pH; format: physicochemical
Method: Solubility of polymorph Forms I and III and the hydrate form of the compound of formula (I) was tested in aqueous conditions at different pH values.

[2] = Slurry conversions on Form III and Form III/hydrate (XRPD); format: physicochemical; design: key: Form III; hydrate
Method: 20 mg Form III with 0.25 ml solvent (2-propanol; or 2-propanone/water (8/2, v/v); or methanol/water (8/2, v/v)) was deposited in a vial. For each solvent, 3 vials were prepared and stored each at different temperatures (4° C., RT, 40° C.) for two days. After storage, the slurry was spread on a paper filter, the solid fractions were collected and dried 2 hours at RT. In a further experiment, the Form III was seeded with the hydrate using methanol/water (8/2, v/v) as the solvent. The polymorphic composition was measured using XRPD.

[3] = Thermal conversions in DSC oven (XRPD); format: physicochemical
Method: Form III or hydrate form were thermally treated in a DSC oven (heating rate 10° C./min) up to selected temperatures (isotherm for 1 min) using an open sample pan. The selected temperatures are for Form III: 110° C. and 170° C.; and for hydrate form: 70° C., 110° C. and 170° C. The polymorphic composition of the obtained fractions was measured by XRPD. Table 12 summarises XRPD patterns in DSC treated Form III. Table 13 summarises XRPD patterns in DSC treated hydrate

[4] = Water adsorption (hygroscopicity) of salts of compound (I); format: physicochemical; conditions: for Water adsorbed: dried 1 h at 25° C. under dry nitrogen flow
Method: Free base of compound (I) (3 g; 7.95 mmol) was dissolved in absolute ethanol (40 mL) and heated to 78° C. An acid (HCl 6M in 2-propanol, 2.0 ml (12 mmol); HBr 48% in water, 0.98 mL (8.75 mmol); methane sulphonic acid, 917 mg (9.54 mmol); ethane sulphonic acid, 1.05 g (9.54 mmol) or p-toluene sulphonic acid monohydrate (1.66 g (8.75 mmol)) was added to the hot reaction mixture. The reaction mixture was allowed to cool to room temperature. The resulting precipitate was filtered off, washed with ethanol and dried under vacuum at 60° C.
The obtained solids were analysed by acid titration, Karl-Fisher titration and HPLC. A physical characterisation was performed (DSC, TGA, XRD and IR, DVS).

[5] = Water solubility of salts of compound (I); format: physicochemical; conditions: 24 hours at 20° C.; for Measured pH: saturated solution in water; for Solubility: water, UV spectrometry
Method: An excess of different salts of compound (I) was agitated with water during 24 hours at 20° C. Following filtration, the concentration of compound (I) in the solution was determined by UV spectrometry.

[6] = rat, in vivo, po
Method: (§1) Five male SD rats (225±11 g) were used per salt form. From each rat a complete plasma concentration time profile was obtained. Tap water and food were available ad libitum. The test involved salts of compound (I) with HBr, HCl, methanesulphonic acid (mesylate), ethanesulphonic acid (esylate) or p-toluenesulphonic acid (tosylate). The individual salts were dispersed in a 0.5% methocel suspension to a final concentration of 1 mg base eq./ml. The formulations were stored at room temperature.
(§2) Administration was oral by gastric intubation: 10 ml/kg to obtain a dose of 10 mg base eq./kg.
(§3) Blood samples were collected 30 min, 1, 2, 4, 7 and 24 h after dose administration.
(§4) Blood was collected by multiple sampling from a tail vein into Multivette® 600 K3E tubes (Sarstedt). Samples were placed immediately on melting ice and plasma was obtained following centrifugation at 4° C. for 10 minutes at approximately 1900×g. All samples were shielded from daylight and stored at ≦−18° C. prior to analysis.
(§5) A limited pharmacokinetic analysis was performed using WinNonlin™ Professional (Version 5.1). A non-compartmental analysis using the lin/log trapezoidal rule with lin/log interpolation was used for all data.

[7] = Absorption and plasma kinetics after oral administration of salts to rat; conditions: male SD rats, oral 10 mg base eq./kg
Method: as §1, §2, §3, §4, §5

With Cn1cc(-c2ccc3nnc(C(F)(F)c4ccc5ncccc5c4)n3n2)cn1 [Form III, 6-{difluoro[6-(1-methyl-1H-pyrazol-4-yl)[1,2,4]triazolo[4,3-b]pyridazin-3-yl]methyl}quinoline] as the molecule, how does the Solubility ([1]; 0.01 HCl) read?
Its Solubility is 78 µg/mL (≈ 207 µM).

What about the Solubility ([1]; 0.1 HCl) of the same molecule?
Its Solubility is 970 µg/mL (≈ 2570 µM).

And the Solubility ([1]; pH2)?
Its Solubility is 130 µg/mL (≈ 345 µM).

What about the Solubility ([1]; pH4) of the same molecule?
The Solubility was 3 µg/mL (≈ 7.95 µM).

And the Solubility ([1]; pH6)?
The Solubility was 1 µg/mL (≈ 2.65 µM).

And the Solubility ([1]; pH8)?
Its Solubility is 1 µg/mL (≈ 2.65 µM).

What about the Solubility ([1]; pH10) of the same molecule?
Its Solubility is 2 µg/mL (≈ 5.3 µM).

What about the “Polymorphic composition (XRPD) after slurry” value (from here on “Polymorphic composition (XRPD)”) ([2]; 2-propanol, 4° C., two days) of the same molecule?
Its value is “III”.

And the “Polymorphic composition (XRPD)” value ([2]; 2-propanol, 40° C., two days)?
The value was “III”.

What about the “Polymorphic composition (XRPD)” value ([2]; 2-propanol, RT, two days) of the same molecule?
Its value is “III”.

What about the “Polymorphic composition (XRPD)” value ([2]; 2-propanone/water (8/2, v/v), 4° C., two days) of the same molecule?
Its value is “hy”.

What about the “Polymorphic composition (XRPD)” value ([2]; 2-propanone/water (8/2, v/v), 40° C., two days) of the same molecule?
The value was “hy”.

What about the “Polymorphic composition (XRPD)” value ([2]; 2-propanone/water (8/2, v/v), RT, two days) of the same molecule?
The value was “hy”.

What about the “Polymorphic composition (XRPD)” value ([2]; methanol/water (8/2, v/v) containing hydrate seeds, 4° C.) of the same molecule?
The value was “III”.

And the “Polymorphic composition (XRPD)” value ([2]; methanol/water (8/2, v/v) containing hydrate seeds, 40° C.)?
Its value is “III”.

What about the “Polymorphic composition (XRPD)” value ([2]; methanol/water (8/2, v/v) containing hydrate seeds, RT) of the same molecule?
The value was “III”.

What about the “Polymorphic composition (XRPD)” value ([2]; methanol/water (8/2, v/v), 4° C., two days) of the same molecule?
The value was “III”.

And the “Polymorphic composition (XRPD)” value ([2]; methanol/water (8/2, v/v), 40° C., two days)?
The value was “III”.

What about the “Polymorphic composition (XRPD)” value ([2]; methanol/water (8/2, v/v), RT, two days) of the same molecule?
Its value is “III”.

And the XRPD measured composition ([3]; DSC treated Form III, up to 110° C.)?
The XRPD measured composition was “Form III”.

What about the XRPD measured composition ([3]; DSC treated Form III, up to 170° C.) of the same molecule?
The XRPD measured composition was “Form I”.

And the XRPD measured composition ([3]; starting Form III)?
The XRPD measured composition was “Form III”.

With CCS(=O)(=O)O.Cn1cc(-c2ccc3nnc(C(F)(F)c4ccc5ncccc5c4)n3n2)cn1 [esylate salt] as the molecule, how does the Hygroscopicity [4] read?
Its Hygroscopicity is “hygroscopic”.

What about the Water adsorbed ([4]; at high relative humidity) of the same molecule?
The Water adsorbed was “up to 34%”.

And the “Measured pH” value [5]?
Its value is “pH = 2.1”.

What about the Solubility [5] of the same molecule?
Its Solubility is 0.025 g/100 ml H2O.

What about the Tmax [6] of the same molecule?
Its Tmax is 1.6 ± 0.5 h.

And the “t1/2 (4-24 h)” value [6]?
Its value is 3.3 ± 0.4 h.

Which Hygroscopicity [4] does the source give for CS(=O)(=O)O.Cn1cc(-c2ccc3nnc(C(F)(F)c4ccc5ncccc5c4)n3n2)cn1 [mesylate salt] here?
The Hygroscopicity was “hygroscopic”.

What about the Water adsorbed ([4]; at high relative humidity) of the same molecule?
The Water adsorbed was “up to 4.5%”.

What about the “Measured pH” value [5] of the same molecule?
The value was “pH = 1.9”.

What about the Solubility [5] of the same molecule?
The Solubility was 0.047 g/100 ml H2O.

And the Tmax [6]?
The Tmax was 1.2 ± 0.4 h.

What about the “t1/2 (4-24 h)” value [6] of the same molecule?
The value was 3.7 ± 0.6 h.

Which Hygroscopicity [4] does the source give for Cc1ccc(S(=O)(=O)O)cc1.Cn1cc(-c2ccc3nnc(C(F)(F)c4ccc5ncccc5c4)n3n2)cn1 [tosylate salt] here?
The Hygroscopicity was “non-hygroscopic”.

And the Water adsorbed ([4]; depending on the atmospheric humidity)?
The Water adsorbed was “up to 0.2%”.

And the “Measured pH” value [5]?
Its value is “pH = 2.1”.

What about the Solubility [5] of the same molecule?
Its Solubility is 0.023 g/100 ml H2O.

What about the “Plasma concentration, Mean ± SD” value ([7]; 0.5 hours, 0.5% methocel suspension (LLOQ given in ng/ml)) of the same molecule?
The value was 2193 ± 1031.

What about the “Plasma concentration, Mean ± SD” value ([7]; 1 hour) of the same molecule?
Its value is 2998 ± 1349.

What about the “Plasma concentration, Mean ± SD” value ([7]; 2 hours) of the same molecule?
Its value is 3274 ± 995.

What about the “Plasma concentration, Mean ± SD” value ([7]; 4 hours) of the same molecule?
The value was 2512 ± 960.

And the “Plasma concentration, Mean ± SD” value ([7]; 7 hours)?
Its value is 1625 ± 537.

What about the “Plasma concentration, Mean ± SD” value ([7]; 24 hours) of the same molecule?
Its value is 47.9 ± 24.0.

And the AUC0-24 h ([7]; Mean ± SD)?
Its AUC0-24 h is 24307 ± 7457 ng·h/mL.

What about the AUC0-inf ([7]; Mean ± SD) of the same molecule?
The AUC0-inf was 24558 ± 7503 ng·h/mL.

What about the Cmax ([7]; Mean ± SD) of the same molecule?
Its Cmax is 3380 ± 944 ng/mL.

And the Tmax ([7]; Mean ± SD)?
Its Tmax is 2.0 ± 1.2 h.

What about the “t1/2 (4-24 h)” value ([7]; Mean ± SD) of the same molecule?
Its value is 3.4 ± 0.6 h.
